Assay results taken from article PMC11252457 (Acta Pharmaceutica Sinica. B, 2024).
Values joined by “and” are separate entries in the source; they are usually repeats but may differ in a detail not shown here. Identical values can stand only once. Like-named read-outs stand apart in the source and are kept apart here.

Key:
[1] = tested on: HIV-1 double mutant strain F227L/V106A; assay: microbe, parasite or virus in culture; type: cell-based; conditions: for EC50: Human immunodeficiency virus 1, MT4, read-out: EC50 F227L/V106A
[2] = tested on: HIV-1 mutant strain K103N; assay: microbe, parasite or virus in culture; type: cell-based; conditions: for EC50: Human immunodeficiency virus 1, MT4, read-out: EC50 K103N
[3] = tested on: HIV-1 mutant strain L100I; assay: microbe, parasite or virus in culture; type: cell-based; conditions: Human immunodeficiency virus 1, MT4, read-out: EC50 L100I
[4] = Cytotoxicity in mock-infected MT-4 cells; conditions: human
[5] = tested on: HIV-1 mutant strain Y181C; assay: microbe, parasite or virus in culture; type: cell-based; conditions: for EC50: Human immunodeficiency virus 1, MT4, read-out: EC50 Y181C
[6] = tested on: HIV-1 mutant strain E138K; assay: microbe, parasite or virus in culture; type: cell-based; conditions: for EC50: Human immunodeficiency virus 1, MT4, read-out: EC50 E138K
[7] = tested on: HIV-1 mutant strain Y188L; assay: microbe, parasite or virus in culture; type: cell-based; conditions: for EC50: Human immunodeficiency virus 1, MT4, read-out: EC50 Y188L
[8] = tested on: HIV-1 RES056 (K103N/Y181C); assay: microbe, parasite or virus in culture; type: cell-based; conditions: for EC50: Human immunodeficiency virus 1, MT4, read-out: EC50 RES056; for SI RES056: ratio of CC50/EC50, RES056
WT HIV-1 (IIIB) = assay: microbe, parasite or virus in culture; type: cell-based; conditions: for EC50: Human immunodeficiency virus 1, IIIB, MT4, read-out: EC50 IIIB; for SI IIIB: ratio of CC50/EC50, IIIB
recombinant WT HIV-1 RT = recombinant WT HIV-1 RT (Human immunodeficiency virus type 1 group M subtype B, UniProt P03366); assay: HIV-1 RT inhibition assay; type: biochemical
Aqueous solubility = type: physicochemical
[9] = cited from earlier work

Compound	EC50 [1] [nM]	EC50 [2] [nM]	EC50 [3] [nM]	CC50 at 5 days [4] [nM]	EC50 [5] [nM]	EC50 [6] [nM]	EC50 [7] [nM]	EC50 [8] [nM]	SI RES056 [8]	EC50 (WT HIV-1 (IIIB)) [nM]	SI IIIB (WT HIV-1 (IIIB))	IC50 (recombinant WT HIV-1 RT) [nM]	other results
CCOP(=O)(OCC)c1ccc(CN2CCC(Nc3nc(Oc4c(C)cc(C#N)cc4C)c4sccc4n3)CC2)cc1 [9c, Diethyl (4-((4-((4-(4-cyano-2,6-dimethylphenoxy)thieno[3,2-d]pyrimidin-2-yl)amino)piperidin-1-yl)methyl)phenyl)phosphonate]	14.3 ± 4.55	≤ 4.62	11.5 ± 3.27	117000 ± 7750	13.2 ± 5.6	12.3 ± 1.98	17 ± 11	445 ± 109	263	6.9 ± 1.92	16,957	760 ± 150	–
Cc1cc(/C=C/C#N)cc(C)c1Oc1nc(NC2CCN(Cc3ccc(P(C)(C)=O)cc3)CC2)nc2ccsc12 [15a, (E)-3-(4-((2-((1-(4-(Dimethylphosphoryl)benzyl)piperidin-4-yl)amino)thieno[3,2-d]pyrimidin-4-yl)oxy)-3,5-dimethylphenyl)acrylonitrile]	3.76 ± 0.46	1.27 ± 0.68	2.84 ± 0.09	117000 ± 23900	5.38 ± 1.61	4.28 ± 1.04	7.96 ± 3.89	15.8 ± 2.62	–	1.75 ± 0.64	–	340 ± 90	Fold higher activity than RPV, F227L/V106A [1]: ~21.7 fold; Fold more effective than ETR, F227L/V106A [1]: 4.8 fold and ~4.84 fold; Fold more effective than ETR, K103N [2]: 2.4 fold and ~2.39 fold; Fold more effective than ETR, Y181C [5]: 3.3 fold and ~3.31 fold; Aqueous solubility (Aqueous solubility; pH = 2.0): 283 µg/mL; Aqueous solubility (Aqueous solubility; pH = 7.4): 27.6 µg/mL; Fold more effective than ETR, E138K [6]: ~2.45 fold; Fold higher activity than RPV, Y188L [7]: about 9.97 fold; Fold more effective than ETR, Y188L [7]: ~2.78 fold; Fold more effective than ETR, RES056 [8]: 5.3 fold; Fold more effective than ETR, WT (WT HIV-1 (IIIB)): 1.6 fold
Cc1cc(C#N)cc(C)c1Oc1nc(Nc2ccc(C#N)cc2)nc(N)c1Br [ETR, etravirine, reference compound]	18.2 ± 12.4	3.04 ± 0.9	8.39 ± 3.4	> 4590	17.8 ± 5.74	10.5 ± 2.49	22.1 ± 6.33	83.3 ± 21.1	–	2.81 ± 1.08	–	–	Aqueous solubility ([9]; pH = 2.0): 127 µg/mL; Aqueous solubility ([9]; pH = 7.0): <<1 μg/mL; Aqueous solubility ([9]; pH = 7.4): <1 µg/mL
Cc1cc(C#N)cc(C)c1Oc1nc(NC2CCN(Cc3ccc(P(C)(C)=O)cc3)CC2)nc2ccsc12 [9a, 4-((2-((1-(4-(Dimethylphosphoryl)benzyl)piperidin-4-yl)amino)thieno[3,2-d]pyrimidin-4-yl)oxy)-3,5-dimethylbenzonitrile]	21.5 ± 13.5	2.66 ± 0.85	7.01 ± 1.76	215000 ± 1170	12.8 ± 2.62	7.33 ± 1.36	11.3 ± 0.87	257 ± 95.2	837	2.2 ± 0.33	97,727	310 ± 10	–
